Measurements as given in patent publication US20250161262A1, “Pharmaceutical Compositions and Methods for Treating Covid” (priority 2022, published 2025).
Converted amounts (≈) assume the structure as drawn.

Key:
[1] = tested on: MERS coronavirus; conditions: MERS coronavirus patients; cited from earlier work
[2] = tested on: Influenza A HNI; assay: antiviral EC50 against Influenza A; assay type: cell-based; conditions: Influenza A virus, read-out: ECso
[3] = tested on: Influenza A(H1N1) strain A/WSN/1933; conditions: Chan et al. (2013); cited from earlier work
[4] = tested on: pandemic flu H/415, A/Hong Kong/415742/2009, A(HINI)pdm09; conditions: To et al. (2016); cited from earlier work
[5] = tested on: Norovirus; assay: Norovirus tests; assay type: cell-based; conditions: one of the Norovirus tests; read-out: ECso
Source text: (§1) It is important to understand that mycophenolic acid's anti-viral effect is likely to require a small fraction (about 1-2% or less) of the clinical dose which is approved and commonly used for prevention of transplant rejection. For instance, Chan et al., 2013, p. […] For instance, in one of the Norovirus tests we document here, ECso of 0.151 mcg/mL was reported. Even less mycophenolic acid would be needed to treat viruses such as Influenza A HNI and RSV in which we report ECso <0.10 mcg/ml. Dramatically lower doses may suffice for mycophenolic acid. Therefore, it is not only possible to achieve adequate body levels of mycophenolic acid to treat these viruses clinically, but also a small fraction of the current clinical dose may be more than adequate. To et al, 2016 also presented data on page 1812 supporting these conclusions.

[6] = tested on: virus; conditions: cited from earlier work
[7] = tested on: RSV; assay: antiviral EC50 against RSV; assay type: cell-based; conditions: human respiratory syncytial virus, read-out: ECso
Source text: as §1

[8] = tested on: avian-origin influenza A (H7N9); conditions: To et al. (2016); cited from earlier work
[9] = tested on: seasonal influenza A(H3N2) virus; conditions: To et al. (2016); cited from earlier work

Row | SMILES | mortality [1] | EC50 [2] | effectiveness against virus [3] | effectiveness against virus [4] | EC50 [5] | EC so ([6]; Chan et al., 2013, p. 612) | local concentrations at usual clinical doses, greater than needed ([6]; usual clinical doses of mycophenolic acid, Chan et al., 2013) | EC50 [7] | effectiveness against virus [8] | effectiveness against virus [9]
1 | COc1c(C)c2c(c(O)c1C/C=C(\C)CCC(=O)OCCN1CCOCC1)C(=O)OC2 [mycophenolate mofetil, 2-morpholinoethyl ester of mycophenolic acid] | no mortality | – | – | – | – | – | – | – | – | –
2 | COc1c(C)c2c(c(O)c1C/C=C(\C)CCC(=O)O)C(=O)OC2 [mycophenolic acid, 6-(4-hydroxy-6-methoxy-7-methyl-3-oxo-1,3-dihydroisobenzofuran-5-yl)-4-methyl-hex-4-enoic acid] | – | < 0.1 µg/mL | effectiveness | effective | 0.151 µg/mL (≈ 0.471 µM) | 0.17 µg/mL | 60-300 × | < 0.1 µg/mL | effective | effective
